From patent US11377442B2, “Small molecule agonists and antagonists of NR2F6 activity” (ZANDER THERAPEUTICS, INC., priority 2016, dated 2022)
Read-outs that look alike come from different tables or passages of the source. Blank lines part the entries; values can stand above or below the compound they belong to.

How the values were obtained:
Type in all cases: cell-based
HEK293 pGL4 = test: Firefly_pGL signal, cmpd/DMSO (pGL4 control cells); conditions: Homo sapiens
NR2F6 = molecular target: T1, NR2F6 (Homo sapiens, UniProt P10588); test: NR2F6 agonist screening, Firefly signal cmpd/DMSO
T1 construct: expressed in transfected cells; also transient transfection
T1 sequence (P10588 1-404): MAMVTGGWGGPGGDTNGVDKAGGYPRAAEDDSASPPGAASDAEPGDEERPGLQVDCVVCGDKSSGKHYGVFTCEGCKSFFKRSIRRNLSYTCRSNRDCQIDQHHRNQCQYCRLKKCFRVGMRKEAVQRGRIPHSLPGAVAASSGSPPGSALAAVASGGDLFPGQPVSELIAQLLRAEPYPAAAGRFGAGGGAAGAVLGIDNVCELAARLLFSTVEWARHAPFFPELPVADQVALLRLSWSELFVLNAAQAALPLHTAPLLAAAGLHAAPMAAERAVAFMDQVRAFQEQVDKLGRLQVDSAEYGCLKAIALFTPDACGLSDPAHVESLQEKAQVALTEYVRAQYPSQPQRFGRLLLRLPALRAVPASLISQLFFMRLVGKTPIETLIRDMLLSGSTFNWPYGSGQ

Renilla [1] = test: Renilla signal in NR2F6 agonist screening, cmpd/DMSO; conditions: Renilla
Renilla [2] = test: Renilla signal, LBD, cmpd/DMSO (NR2F6 LBD transfected cells)
NR2F6 LBD = molecular target: T2, NR2F6 LBD (Homo sapiens, UniProt P10588); test: NR2F6 LBD transient transfection
T2 construct: expressed in transfected cells
T2 sequence (P10588 165-393 limits assumed): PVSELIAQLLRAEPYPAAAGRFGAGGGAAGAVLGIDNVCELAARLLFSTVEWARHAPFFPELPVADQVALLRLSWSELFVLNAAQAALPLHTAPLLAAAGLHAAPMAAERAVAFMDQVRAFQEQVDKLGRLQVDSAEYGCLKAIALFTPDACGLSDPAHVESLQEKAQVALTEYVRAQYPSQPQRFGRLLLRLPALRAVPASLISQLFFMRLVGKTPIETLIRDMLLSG
Outline: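 LBD-transfected cells treated at 40, 10, 2 and 0.5 μM (4 replicates); cytotoxicity measured in parallel, normalized to DMSO (0%) and zero signal (100%). Higher concentrations excluded where signal loss reflected toxicity.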

[3] = HEK293, 0.5 uM, read-out: Firefly pGL4, cmpd/DMSO (mean)
[4] = HEK293, 2 uM, read-out: Firefly pGL4, cmpd/DMSO (mean)
[5] = HEK293, 10 uM, read-out: Firefly pGL4, cmpd/DMSO (mean)
[6] = HEK293, 40 uM, read-out: Firefly pGL4, cmpd/DMSO (mean)
[7] = HEK293, pGL4, 1% FBS, 0.5 uM, read-out: Firefly, pGL4, 1% FBS, cmpd/DMSO (mean)
[8] = HEK293, pGL4, 1% FBS, 2 uM, read-out: Firefly, pGL4, 1% FBS, cmpd/DMSO (mean)
[9] = HEK293, pGL4, 1% FBS, 10 uM, read-out: Firefly, pGL4, 1% FBS, cmpd/DMSO (mean)
[10] = HEK293, pGL4, 1% FBS, 40 uM, read-out: Firefly, pGL4, 1% FBS, cmpd/DMSO (mean)
[11] = HEK293, pGL4, 10% FBS, 0.5 uM, read-out: Firefly, pGL4, 10% FBS, cmpd/DMSO (mean)
[12] = HEK293, pGL4, 10% FBS, 2 uM, read-out: Firefly, pGL4, 10% FBS, cmpd/DMSO (mean)
[13] = HEK293, pGL4, 10% FBS, 10 uM, read-out: Firefly, pGL4, 10% FBS, cmpd/DMSO (mean)
[14] = HEK293, pGL4, 10% FBS, 40 uM, read-out: Firefly, pGL4, 10% FBS, cmpd/DMSO (mean)
[15] = read-out: Renilla F4, cmpd/DMSO (mean)
[16] = F4, 1% FBS, read-out: Renilla, F4, 1% FBS, cmpd/DMSO (mean)
[17] = F4, 10% FBS, read-out: Renilla, F4, 10% FBS, cmpd/DMSO (mean)

- Firefly F4, cmpd/DMSO (mean) (NR2F6; 0.5 uM): 1.1
- Firefly F4, cmpd/DMSO (mean) (NR2F6; 2 uM): 1.3
- Firefly F4, cmpd/DMSO (mean) (NR2F6; 10 uM): 2.0
- Firefly F4, cmpd/DMSO (mean) (NR2F6; 40 uM): 0.6
- F4, Firefly/Renilla for S/B(F4) > 3 (NR2F6; 1% FBS, 10 uM): 1.9
- Firefly, F4/pGL4 for S/B(F4) > 3 (NR2F6; 1% FBS, 10 uM): 2.7
- F4, Firefly/Renilla for S/B(F4) > 3 (NR2F6; 1% FBS, 40 uM): 1.0
- Firefly, F4/pGL4 for S/B(F4) > 3 (NR2F6; 1% FBS, 40 uM): 2.4
- F4, Firefly/Renilla for S/B(F4) > 3 (NR2F6; 10% FBS, 10 uM): 2.2
- Firefly, F4/pGL4 for S/B(F4) > 3 (NR2F6; 10% FBS, 10 uM): 2.2
- F4, Firefly/Renilla for S/B(F4) > 3 (NR2F6; 10% FBS, 40 uM): 3.3
- Firefly, F4/pGL4 for S/B(F4) > 3 (NR2F6; 10% FBS, 40 uM): 3.1
- Firefly, F4, 1% FBS, cmpd/DMSO (mean) (NR2F6; 1% FBS, 0.5 uM): 1.2
- Firefly, F4, 1% FBS, cmpd/DMSO (mean) (NR2F6; 1% FBS, 2 uM): 2.2
- Firefly, F4, 1% FBS, cmpd/DMSO (mean) (NR2F6; 1% FBS, 10 uM): 3.9
- Firefly, F4, 1% FBS, cmpd/DMSO (mean) (NR2F6; 1% FBS, 40 uM): 3.4
- Firefly, F4, 10% FBS, cmpd/DMSO (mean) (NR2F6; 10% FBS, 0.5 uM): 0.9
- Firefly, F4, 10% FBS, cmpd/DMSO (mean) (NR2F6; 10% FBS, 2 uM): 1.4
- Firefly, F4, 10% FBS, cmpd/DMSO (mean) (NR2F6; 10% FBS, 10 uM): 4.6
- Firefly, F4, 10% FBS, cmpd/DMSO (mean) (NR2F6; 10% FBS, 40 uM): 13
- Firefly LBD, cmpd/DMSO (mean) (NR2F6 LBD; 0.5 uM): 1.1
- Firefly LBD, cmpd/DMSO (mean) (NR2F6 LBD; 2 uM): 2.0
- Firefly LBD, cmpd/DMSO (mean) (NR2F6 LBD; 10 uM): 3.2
- Firefly LBD, cmpd/DMSO (mean) (NR2F6 LBD; 40 uM): 0.4
SMILES: O=S1(=O)C[C@H](NCCCc2ccccc2)[C@@H](S(=O)(=O)c2ccc(Cl)cc2)C1 [Compound D137]
- fold induction at 0.5 µM (HEK293 pGL4; [3]): 0.8
- fold induction at 2 µM (HEK293 pGL4; [4]): 1.2
- fold induction at 10 µM (HEK293 pGL4; [5]): 1.5
- fold induction at 40 µM (HEK293 pGL4; [6]): 1.5
- fold induction at 0.5 µM (HEK293 pGL4; [7]): 1
- fold induction at 2 µM (HEK293 pGL4; [8]): 1
- fold induction at 10 µM (HEK293 pGL4; [9]): 1.5
- fold induction at 40 µM (HEK293 pGL4; [10]): 1.5
- fold induction at 0.5 µM (HEK293 pGL4; [11]): 0.7
- fold induction at 2 µM (HEK293 pGL4; [12]): 1.1
- fold induction at 10 µM (HEK293 pGL4; [13]): 2.1
- fold induction at 40 µM (HEK293 pGL4; [14]): 4.3
- fold induction at 0.5 µM (Renilla [1]; [15]): 1.1
- fold induction at 2 µM (Renilla [1]; [15]): 1.1
- fold induction at 10 µM (Renilla [1]; [15]): 1.8
- fold induction at 40 µM (Renilla [1]; [15]): 2.6
- fold induction at 0.5 µM (Renilla [1]; [16]): 1
- fold induction at 2 µM (Renilla [1]; [16]): 1.3
- fold induction at 10 µM (Renilla [1]; [16]): 2.1
- fold induction at 40 µM (Renilla [1]; [16]): 3.5
- fold induction at 0.5 µM (Renilla [1]; [17]): 1.2
- fold induction at 2 µM (Renilla [1]; [17]): 1.4
- fold induction at 10 µM (Renilla [1]; [17]): 2.1
- fold induction at 40 µM (Renilla [1]; [17]): 4
- Renilla LBD, cmpd/DMSO (mean) (Renilla [2]; 0.5 uM): 1.0
- Renilla LBD, cmpd/DMSO (mean) (Renilla [2]; 2 uM): 1.0
- Renilla LBD, cmpd/DMSO (mean) (Renilla [2]; 10 uM): 0.8
- Renilla LBD, cmpd/DMSO (mean) (Renilla [2]; 40 uM): 0.4

SMILES: CC(C)OCCCN[C@H]1CS(=O)(=O)C[C@@H]1S(=O)(=O)c1ccc(Cl)cc1 [Compound D138]
- fold induction at 0.5 µM (HEK293 pGL4; [3]): 0.9
- fold induction at 2 µM (HEK293 pGL4; [4]): 0.9
- fold induction at 10 µM (HEK293 pGL4; [5]): 1.5
- fold induction at 40 µM (HEK293 pGL4; [6]): 1.5
- fold induction at 0.5 µM (HEK293 pGL4; [7]): 1
- fold induction at 2 µM (HEK293 pGL4; [8]): 1
- fold induction at 10 µM (HEK293 pGL4; [9]): 1.6
- fold induction at 40 µM (HEK293 pGL4; [10]): 1.7
- fold induction at 0.5 µM (HEK293 pGL4; [11]): 1.1
- fold induction at 2 µM (HEK293 pGL4; [12]): 1
- fold induction at 10 µM (HEK293 pGL4; [13]): 1.7
- fold induction at 40 µM (HEK293 pGL4; [14]): 3.6
- Firefly F4, cmpd/DMSO (mean) (NR2F6; 0.5 uM): 1.0
- Firefly F4, cmpd/DMSO (mean) (NR2F6; 2 uM): 1.1
- Firefly F4, cmpd/DMSO (mean) (NR2F6; 10 uM): 2.6
- Firefly F4, cmpd/DMSO (mean) (NR2F6; 40 uM): 1.7
- F4, Firefly/Renilla for S/B(F4) > 3 (NR2F6; 1% FBS, 10 uM): 2.2
- Firefly, F4/pGL4 for S/B(F4) > 3 (NR2F6; 1% FBS, 10 uM): 2.7
- F4, Firefly/Renilla for S/B(F4) > 3 (NR2F6; 1% FBS, 40 uM): 1.1
- Firefly, F4/pGL4 for S/B(F4) > 3 (NR2F6; 1% FBS, 40 uM): 1.9
- F4, Firefly/Renilla for S/B(F4) > 3 (NR2F6; 10% FBS, 10 uM): 1.6
- Firefly, F4/pGL4 for S/B(F4) > 3 (NR2F6; 10% FBS, 10 uM): 1.8
- F4, Firefly/Renilla for S/B(F4) > 3 (NR2F6; 10% FBS, 40 uM): 3.2
- Firefly, F4/pGL4 for S/B(F4) > 3 (NR2F6; 10% FBS, 40 uM): 3.2
- Firefly, F4, 1% FBS, cmpd/DMSO (mean) (NR2F6; 1% FBS, 0.5 uM): 0.8
- Firefly, F4, 1% FBS, cmpd/DMSO (mean) (NR2F6; 1% FBS, 2 uM): 1.9
- Firefly, F4, 1% FBS, cmpd/DMSO (mean) (NR2F6; 1% FBS, 10 uM): 4.2
- Firefly, F4, 1% FBS, cmpd/DMSO (mean) (NR2F6; 1% FBS, 40 uM): 3.3
- Firefly, F4, 10% FBS, cmpd/DMSO (mean) (NR2F6; 10% FBS, 0.5 uM): 1.8
- Firefly, F4, 10% FBS, cmpd/DMSO (mean) (NR2F6; 10% FBS, 2 uM): 1.3
- Firefly, F4, 10% FBS, cmpd/DMSO (mean) (NR2F6; 10% FBS, 10 uM): 3.1
- Firefly, F4, 10% FBS, cmpd/DMSO (mean) (NR2F6; 10% FBS, 40 uM): 12
- fold induction at 0.5 µM (Renilla [1]; [15]): 0.8
- fold induction at 2 µM (Renilla [1]; [15]): 1
- fold induction at 10 µM (Renilla [1]; [15]): 1.2
- fold induction at 40 µM (Renilla [1]; [15]): 2.3
- fold induction at 0.5 µM (Renilla [1]; [16]): 1.3
- fold induction at 2 µM (Renilla [1]; [16]): 1.4
- fold induction at 10 µM (Renilla [1]; [16]): 1.9
- fold induction at 40 µM (Renilla [1]; [16]): 2.9
- fold induction at 0.5 µM (Renilla [1]; [17]): 1.4
- fold induction at 2 µM (Renilla [1]; [17]): 1.4
- fold induction at 10 µM (Renilla [1]; [17]): 2
- fold induction at 40 µM (Renilla [1]; [17]): 3.6
- Renilla LBD, cmpd/DMSO (mean) (Renilla [2]; 0.5 uM): 0.9
- Renilla LBD, cmpd/DMSO (mean) (Renilla [2]; 2 uM): 1.1
- Renilla LBD, cmpd/DMSO (mean) (Renilla [2]; 10 uM): 0.9
- Renilla LBD, cmpd/DMSO (mean) (Renilla [2]; 40 uM): 0.3
- Firefly LBD, cmpd/DMSO (mean) (NR2F6 LBD; 0.5 uM): 1.3
- Firefly LBD, cmpd/DMSO (mean) (NR2F6 LBD; 2 uM): 1.8
- Firefly LBD, cmpd/DMSO (mean) (NR2F6 LBD; 10 uM): 3.7
- Firefly LBD, cmpd/DMSO (mean) (NR2F6 LBD; 40 uM): 0.4
